Assay results taken from ChEMBL document CHEMBL1201862, “PubChem BioAssay data set” (2004).
The source made the active and inactive calls.

Tests used:
Cytochrome P450 1A2 = target: T1, Cytochrome P450 1A2 (Homo sapiens, UniProt P05177);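 also: PubChem cytochrome P450 panel assay, CYP1A2 panel member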
T1 sequence (P05177 whole entry): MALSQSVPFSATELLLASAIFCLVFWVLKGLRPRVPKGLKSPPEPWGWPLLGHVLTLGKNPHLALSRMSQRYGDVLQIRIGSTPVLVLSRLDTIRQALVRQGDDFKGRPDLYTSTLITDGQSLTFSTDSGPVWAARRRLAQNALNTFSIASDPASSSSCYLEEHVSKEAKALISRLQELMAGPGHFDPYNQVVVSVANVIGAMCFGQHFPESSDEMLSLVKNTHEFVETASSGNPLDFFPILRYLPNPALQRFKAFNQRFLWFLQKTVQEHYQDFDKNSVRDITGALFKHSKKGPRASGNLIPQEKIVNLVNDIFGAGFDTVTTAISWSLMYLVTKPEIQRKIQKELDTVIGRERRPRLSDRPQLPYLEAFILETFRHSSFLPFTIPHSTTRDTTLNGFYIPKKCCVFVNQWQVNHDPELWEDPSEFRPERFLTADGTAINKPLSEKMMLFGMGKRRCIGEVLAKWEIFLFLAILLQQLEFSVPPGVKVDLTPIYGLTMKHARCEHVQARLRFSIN

Cytochrome P450 2C9 = Cytochrome P450 2C9 (Homo sapiens, UniProt P11712)
Cytochrome P450 3A4 = Cytochrome P450 3A4 (Homo sapiens, UniProt P08684);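 also: CYP3A4 tested as one member of a cytochrome P450 panel screen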
Cytochrome P450 2C19 = Cytochrome P450 2C19 (Homo sapiens, UniProt P33261); test: Cytochrome panel assay with activity outcomes. Panel member name: p450-cyp2c19 Compounds with AC50 equal or less than 10 uM are considered active; format: functional; conditions: read-out: AC50
Cytochrome P450 2D6 = Cytochrome P450 2D6 (Homo sapiens, UniProt P10635);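 also: CYP2D6 member of a cytochrome P450 panel assay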
[1] = NIH-3T3 fibroblast cytotoxicity, dose response, cytotoxicity control, cell-based, fluorescence, Alamar Blue, secondary assay (AID 2327); format: functional;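 also: NIH-3T3 mouse fibroblasts cultured with fluconazole at 8 µg/mL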
[2] = target: FAD-linked sulfhydryl oxidase ALR (Homo sapiens, UniProt P55789); test: ALR-catalysed DTT oxidation blockers – biochemical, H2O2 detection, luminescence, cherry-pick, dose response (AID 493248)
[3] = target: T2, Rac GTPase-activating protein 1 (Homo sapiens, UniProt Q9H0H5); test: blockers of MgcRacGAP-driven Rac1 GTP hydrolysis – biochemical, ADP Hunter fluorescence, primary and confirmatory, confirmation (AID 624330); format: functional
T2 sequence (Q9H0H5 whole entry): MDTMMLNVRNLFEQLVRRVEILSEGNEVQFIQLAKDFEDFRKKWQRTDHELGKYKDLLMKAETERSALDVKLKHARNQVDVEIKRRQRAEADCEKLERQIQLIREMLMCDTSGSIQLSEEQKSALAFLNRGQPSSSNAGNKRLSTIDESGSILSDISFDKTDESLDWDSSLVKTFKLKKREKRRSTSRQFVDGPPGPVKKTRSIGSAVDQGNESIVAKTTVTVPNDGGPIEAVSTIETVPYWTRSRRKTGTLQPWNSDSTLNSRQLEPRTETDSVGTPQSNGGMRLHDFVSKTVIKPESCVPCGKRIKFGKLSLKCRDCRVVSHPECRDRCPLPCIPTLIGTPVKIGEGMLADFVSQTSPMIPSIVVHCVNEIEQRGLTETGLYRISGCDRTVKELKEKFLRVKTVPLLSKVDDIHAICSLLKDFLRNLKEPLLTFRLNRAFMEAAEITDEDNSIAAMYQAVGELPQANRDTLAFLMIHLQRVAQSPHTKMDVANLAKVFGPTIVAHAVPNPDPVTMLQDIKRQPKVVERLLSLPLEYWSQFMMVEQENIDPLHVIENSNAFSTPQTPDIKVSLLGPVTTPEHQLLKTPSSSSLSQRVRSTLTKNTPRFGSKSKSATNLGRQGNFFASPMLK

Paired box protein Pax-8 = Paired box protein Pax-8 (Homo sapiens, UniProt Q06710); test: PAX8 transcriptional activity inhibition in RMG-I – RMG-I cells, luciferase, cherry-pick, dose response (AID 687027); format: functional, cell-based;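 also: luciferase reporter driven by Pax8 target thyroperoxidase promoter measured by SteadyGlo luminescence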
[4] = loss of viability in HepG2 cells – cell-based, CellTiter-Glo, cherry-picked, cytotoxicity control for Shn3 inhibitor project, dose response (AID 624134); format: functional
[5] = non-specific 3'UTR reporter inhibition in Clone20-Shn3RL – cell-based, Renilla luciferase, cherry-picked, counter-screen for Shn3 inhibitor project, dose response (AID 624133); format: functional
[6] = reduction of Shn3 3'UTR-driven luciferase in osteoblasts – cell-based, Clone20 osteoblasts, firefly luciferase, cherry-picked, dose response (AID 624132); format: functional;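 also: firefly luciferase luminescence from reporter carrying the Shn3 3'UTR in osteoblasts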
Streptokinase A = target: T3, Streptokinase A (Streptococcus pyogenes serotype M1, UniProt P10520); test: viability-normalized secreted streptokinase activity reduction – plasminogen activation absorbance, OD405, dose response (AID 1914); format: functional, Streptococcus pyogenes M1 GAS;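 also: secreted streptokinase activity via plasminogen activation per viability signal from cell pellet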
T3 sequence (P10520 whole entry): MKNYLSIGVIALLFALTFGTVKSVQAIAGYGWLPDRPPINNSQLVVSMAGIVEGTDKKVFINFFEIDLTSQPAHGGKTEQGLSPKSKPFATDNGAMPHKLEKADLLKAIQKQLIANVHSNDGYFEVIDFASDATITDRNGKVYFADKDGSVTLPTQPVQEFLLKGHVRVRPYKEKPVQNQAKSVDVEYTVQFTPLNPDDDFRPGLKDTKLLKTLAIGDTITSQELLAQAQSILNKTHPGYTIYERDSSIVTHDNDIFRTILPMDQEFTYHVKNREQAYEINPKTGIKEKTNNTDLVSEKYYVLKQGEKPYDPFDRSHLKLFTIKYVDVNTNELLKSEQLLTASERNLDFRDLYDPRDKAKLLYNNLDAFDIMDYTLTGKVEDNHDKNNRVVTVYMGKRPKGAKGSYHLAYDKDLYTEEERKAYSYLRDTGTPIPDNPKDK

Streptococcus = test: GAS UMAA2166 growth inhibition – luminescence, BacTiterGlo, counter-screen for streptokinase expression inhibitor project, dose response (AID 1915); format: functional, organism-based;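 also: potency for reduction of bacterial viability or growth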
[7] = test system: Streptococcus sp. 'group A'; test: Streptococcus pyogenes SK(-)GAS viability under kanamycin – luminescence, BacTiterGlo, confirmation, counter-screen for streptokinase expression inhibitor project, dose response (AID 1900); format: functional, organism-based

Cytochrome P450 2C19, sequence (P33261 whole entry): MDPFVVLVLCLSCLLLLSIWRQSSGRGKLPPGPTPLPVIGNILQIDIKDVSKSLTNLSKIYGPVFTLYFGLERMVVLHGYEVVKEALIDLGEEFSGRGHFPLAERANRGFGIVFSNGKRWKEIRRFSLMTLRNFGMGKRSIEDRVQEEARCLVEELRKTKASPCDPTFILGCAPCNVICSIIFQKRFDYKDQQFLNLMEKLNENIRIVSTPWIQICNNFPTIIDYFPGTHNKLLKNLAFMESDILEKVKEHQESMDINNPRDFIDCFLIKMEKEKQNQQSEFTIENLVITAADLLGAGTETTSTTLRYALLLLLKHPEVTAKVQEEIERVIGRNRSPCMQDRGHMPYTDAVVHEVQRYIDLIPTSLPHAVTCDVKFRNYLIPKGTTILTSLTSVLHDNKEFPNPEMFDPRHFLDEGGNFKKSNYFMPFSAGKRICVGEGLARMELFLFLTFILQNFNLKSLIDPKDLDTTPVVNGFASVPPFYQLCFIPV
Cytochrome P450 3A4, sequence (P08684 whole entry): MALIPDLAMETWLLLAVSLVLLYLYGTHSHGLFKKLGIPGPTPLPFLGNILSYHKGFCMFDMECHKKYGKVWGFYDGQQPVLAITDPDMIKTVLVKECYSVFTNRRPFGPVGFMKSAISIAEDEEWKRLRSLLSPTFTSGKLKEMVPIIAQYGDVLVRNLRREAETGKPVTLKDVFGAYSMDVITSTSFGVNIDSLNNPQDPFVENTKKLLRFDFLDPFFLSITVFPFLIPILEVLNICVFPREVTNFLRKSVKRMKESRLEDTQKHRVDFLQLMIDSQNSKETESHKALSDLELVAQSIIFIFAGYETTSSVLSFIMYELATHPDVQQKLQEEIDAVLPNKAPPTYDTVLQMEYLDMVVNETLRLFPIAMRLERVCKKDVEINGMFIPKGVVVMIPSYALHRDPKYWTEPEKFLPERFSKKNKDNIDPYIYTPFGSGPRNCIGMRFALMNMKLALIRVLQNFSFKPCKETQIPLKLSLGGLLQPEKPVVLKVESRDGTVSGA
Cytochrome P450 2C9, sequence (P11712 whole entry): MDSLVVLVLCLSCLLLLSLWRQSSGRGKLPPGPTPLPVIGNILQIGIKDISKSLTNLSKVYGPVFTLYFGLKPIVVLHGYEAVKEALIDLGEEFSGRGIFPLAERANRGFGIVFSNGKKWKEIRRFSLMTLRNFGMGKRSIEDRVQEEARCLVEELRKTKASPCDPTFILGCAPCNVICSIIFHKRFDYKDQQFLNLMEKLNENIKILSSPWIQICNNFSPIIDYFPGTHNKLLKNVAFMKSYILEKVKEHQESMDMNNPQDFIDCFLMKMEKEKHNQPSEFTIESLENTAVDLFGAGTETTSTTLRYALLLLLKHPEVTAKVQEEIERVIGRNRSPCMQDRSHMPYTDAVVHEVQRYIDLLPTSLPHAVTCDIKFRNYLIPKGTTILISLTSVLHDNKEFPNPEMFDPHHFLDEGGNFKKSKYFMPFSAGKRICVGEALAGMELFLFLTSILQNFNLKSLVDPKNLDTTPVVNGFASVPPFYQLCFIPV
Cytochrome P450 2D6, sequence (P10635 whole entry): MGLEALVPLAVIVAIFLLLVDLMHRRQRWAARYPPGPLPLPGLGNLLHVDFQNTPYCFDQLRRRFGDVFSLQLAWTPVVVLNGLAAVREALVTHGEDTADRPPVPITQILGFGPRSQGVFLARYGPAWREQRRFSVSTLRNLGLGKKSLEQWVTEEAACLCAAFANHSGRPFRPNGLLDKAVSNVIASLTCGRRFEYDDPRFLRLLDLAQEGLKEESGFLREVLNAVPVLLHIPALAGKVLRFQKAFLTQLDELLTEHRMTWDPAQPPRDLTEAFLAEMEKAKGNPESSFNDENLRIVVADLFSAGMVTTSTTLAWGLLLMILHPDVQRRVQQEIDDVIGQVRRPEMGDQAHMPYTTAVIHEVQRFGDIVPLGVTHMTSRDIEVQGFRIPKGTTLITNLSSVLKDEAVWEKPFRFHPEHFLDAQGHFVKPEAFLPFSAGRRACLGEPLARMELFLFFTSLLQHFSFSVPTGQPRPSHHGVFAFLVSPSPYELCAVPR
FAD-linked sulfhydryl oxidase ALR, sequence (P55789 whole entry): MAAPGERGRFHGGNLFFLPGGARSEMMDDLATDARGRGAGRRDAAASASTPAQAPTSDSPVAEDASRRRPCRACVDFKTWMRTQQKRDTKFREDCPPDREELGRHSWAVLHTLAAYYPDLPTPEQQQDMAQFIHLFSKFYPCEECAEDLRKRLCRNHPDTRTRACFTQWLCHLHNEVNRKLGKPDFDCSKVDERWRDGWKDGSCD
Paired box protein Pax-8, sequence (Q06710 whole entry): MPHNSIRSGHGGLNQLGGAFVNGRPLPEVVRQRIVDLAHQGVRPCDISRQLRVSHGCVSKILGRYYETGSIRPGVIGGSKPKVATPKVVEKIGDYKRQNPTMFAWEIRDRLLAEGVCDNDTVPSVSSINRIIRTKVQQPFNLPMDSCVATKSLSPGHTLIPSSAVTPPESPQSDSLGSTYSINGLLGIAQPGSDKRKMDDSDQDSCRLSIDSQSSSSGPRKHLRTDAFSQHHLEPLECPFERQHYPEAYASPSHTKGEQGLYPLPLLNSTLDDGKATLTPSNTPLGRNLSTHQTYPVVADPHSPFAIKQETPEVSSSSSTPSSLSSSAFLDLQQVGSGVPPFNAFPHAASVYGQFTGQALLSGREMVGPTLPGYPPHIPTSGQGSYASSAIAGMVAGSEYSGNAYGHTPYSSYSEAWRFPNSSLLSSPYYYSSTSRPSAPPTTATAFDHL

CC(C)c1ccc(NC(=O)C(c2ccccc2)N2CCN(C=O)CC2)cc1 (configuration not stated)
AC50 (Cytochrome P450 1A2): 31.6 µM (inconclusive) | AC50 (Cytochrome P450 2C9): 14.1 µM (inconclusive) | AC50 (Cytochrome P450 3A4): 11.2 µM (inconclusive) | AC50 (Cytochrome P450 2C19): 28.2 µM (inconclusive) | AC50 (Cytochrome P450 2D6): 14.1 µM (inconclusive)

C[N+](C)(C)/N=C\c1ccc(O)c(O)c1
AC50 (Cytochrome P450 1A2): 10 µM (inconclusive) | AC50 (Cytochrome P450 2D6): 2 µM (inconclusive)

COc1ccc(-c2cc(-c3cc(F)ccc3O)[nH]n2)cc1OC
AC50 (Cytochrome P450 2C9): 39.8 µM (inconclusive) | EC50 [1]: > 150 µM (inactive) | AC50 (Cytochrome P450 2D6): 28.2 µM (inconclusive)

COc1cccc(CC(C(=O)Nc2cc(C)ccc2C)c2nn[nH]n2)c1OC (configuration not stated)
AC50 (Cytochrome P450 3A4): 25.1 µM (inconclusive) | AC50 (Cytochrome P450 2D6): 15.8 µM (inconclusive)

CC(C)CN1C(=O)c2ccc(C(=O)Nc3ccccc3C(=O)O)cc2C1=O
AC50 [2]: > 100 µM (inactive)

COc1ccc(OC)c2nc(O)c(CCNS(=O)(=O)c3ccc(Cl)cc3)cc12
AC50 (Cytochrome P450 3A4): 5.62 µM (inconclusive) | AC50 (Cytochrome P450 2C19): 8.91 µM (inconclusive) | AC50 (Cytochrome P450 2D6): 31.6 µM (inconclusive)

OCCn1cnc2c(SCc3ccccc3)ncnc21
AC50 (Cytochrome P450 1A2): 3.16 µM (inconclusive)

Nc1ccc2ccc(O)cc2c1
IC50 [3]: 36.7 µM (active)

Cc1nc2nc(C)c(CCC(=O)NCCCN3CCN(c4cccc(Cl)c4)CC3)c(C)n2n1
AC50 (Cytochrome P450 2C19): 25.1 µM (inconclusive) | AC50 (Cytochrome P450 2D6): 12.6 µM (inconclusive)

O=C(NCc1cccnc1)c1ccc(COc2ccccc2Cl)cc1
AC50 [2]: 0.055 µM (active)

O=C(CCN1CCN(C(c2ccccc2)c2ccccc2)CC1)N/N=C/c1ccc(O)cc1
IC50 [3]: 88.2 µM (active) | AC50 [2]: 1.6 µM (active)

CC(C)=CCNc1ncnc2nc[nH]c12
AC50 (Cytochrome P450 1A2): 6.31 µM (inconclusive)

N#CCC(=O)Nc1ccc(C(=O)NCc2cccc(Cl)c2)cc1
AC50 [2]: 9.8 µM (active)

CCN(CC)CCc1nc(-c2ccccc2)no1
AC50 (Cytochrome P450 2D6): 6.31 µM (inconclusive)

Nc1n[nH]c(SCC(=O)Nc2ccccc2Sc2ccc(Cl)cc2)n1
AC50 (Cytochrome P450 2D6): 12.6 µM (inconclusive)

O=C(OC1CCN(CCCl)CC1)C(c1ccccc1)c1ccccc1
AC50 (Cytochrome P450 1A2): 12.6 µM (inconclusive) | AC50 (Cytochrome P450 3A4): 10 µM (inconclusive) | AC50 (Cytochrome P450 2D6): 31.6 µM (inconclusive)

O=C(Nc1ccccc1)c1cc(-n2cnnc2)ccc1Cl
AC50 (Cytochrome P450 1A2): 12.6 µM (inconclusive) | AC50 (Cytochrome P450 2C9): 25.1 µM (inconclusive)

CC1CCCCN1Cc1cccnc1 (configuration not stated)
IC50 [3]: 109 µM (active)

CCN(CC)CC(=O)NN(Cc1ccccc1)c1ccccc1
IC50 [3]: 108 µM (active)

CC(=O)N1CCN(c2ccc(NCc3ccco3)cc2)CC1
IC50 [3]: 14.6 µM (active)

CCCCOc1cc(C(=O)NCCN(CC)CC)c2ccccc2n1 [DIBUCAINE]
AC50 (Cytochrome P450 2D6): 7.94 µM (inconclusive)

COc1cc(/C=C2/C(=O)NN(c3ccccc3)C2=O)cc(Br)c1O
AC50 [2]: 0.484 µM (active)

CCCN(C)C[C@H]1OCCCC[C@@H](C)Oc2ccc(NC(=O)c3ccccc3)cc2C(=O)N([C@H](C)CO)C[C@H]1C
AC50 (Paired box protein Pax-8): 69.5 µM (active)

O=[N+]([O-])c1ccc(-c2cn(-c3ccccc3F)c(=S)[nH]2)cc1
AC50 [2]: > 100 µM (inactive)

COc1ccc(-n2c(=O)c(-c3ccc(Cl)cc3)nc3cnc(N4CCNCC4)nc32)cc1
AC50 (Cytochrome P450 1A2): 12.6 µM (inconclusive)

CCc1cc2c(nc1CC)CCN(CC/C(C)=N/O[C@@H](C)c1cn([C@@H]3COC[C@@H]3O)nn1)C2
AC50 (Cytochrome P450 2D6): 2.51 µM (inconclusive)

COc1cccc(C(=O)Nc2cc3c(cc2N2CCCC2)n(C)c(=O)n3C)c1
IC50 [3]: 156 µM (active)

Nc1cccc(/C=C/c2ccncc2)c1
AC50 [2]: 0.59 µM (active)

CCc1nn(C)c(-c2nnc(S)n2N)c1Cl
AC50 [2]: 0.673 µM (active) | AC50 (Cytochrome P450 2C9): 28.2 µM (inconclusive)

Nn1c(S)nnc1Cc1ccccc1
AC50 [2]: 0.134 µM (active)

CCc1ccc(CNC(=O)c2cc3c(C)nc4ccccc4c3o2)cc1
AC50 [4]: > 70 µM (inactive) | AC50 [5]: 7.78 µM (active) | AC50 [6]: 2.02 µM (active)

CCOCCCNCC(=O)NCC1CCCCC1
IC50 [3]: 141 µM (active)

CCc1ccccc1N1C(=O)CC(N2CCc3ccccc32)C1=O (configuration not stated)
AC50 [2]: 2.81 µM (active)

O=C(NCc1ccco1)c1cc(C(=O)C2CC2)c[nH]1
AC50 (Cytochrome P450 1A2): 0.2 µM (inconclusive) | AC50 (Cytochrome P450 2C9): 39.8 µM (inconclusive)

FC(F)(F)c1cccc(NC(S)=Nc2ccc(Cl)cc2Cl)c1
EC50 (Streptokinase A): > 150 µM (not active) | EC50 (Streptococcus): 46.8 µM (active) | EC50 [7]: 4.48 µM (active) | AC50 (Cytochrome P450 2C9): 31.6 µM (inconclusive) | AC50 (Cytochrome P450 3A4): 28.2 µM (inconclusive) | AC50 (Cytochrome P450 2D6): 7.94 µM (inconclusive)

CCc1ccc(CCN2CCCCC2)nc1
AC50 (Cytochrome P450 1A2): 5.01 µM (inconclusive)

Cc1cc(NC(=O)c2ccc(S(=O)(=O)Nc3ccccc3)cc2)no1
AC50 (Cytochrome P450 2D6): 25.1 µM (inconclusive)

NC(=O)CC(NC(=O)c1ccccc1)c1ccc(N2CCC(Cc3ccccc3)CC2)c([N+](=O)[O-])c1 (configuration not stated)
AC50 [4]: 2.74 µM (active) | AC50 [5]: 4.2 µM (active) | AC50 [6]: 2.61 µM (active)

OCC1OC(n2cnc3c(O)nnnc32)C(O)C1O (configuration not stated)
AC50 (Paired box protein Pax-8): 0.785 µM (active)

COc1ccc(S(=O)(=O)N2CCN(CC(=O)Nc3cc(OC)cc(OC)c3)CC2)cc1
AC50 (Cytochrome P450 2D6): 20 µM (inconclusive)

O=C(C1CC1)N1CCN=C1SCc1ccccc1Cl
AC50 [2]: 2.29 µM (active)

CCOC(=O)Cc1csc(NC(=S)NC(=O)c2ccc(F)cc2)n1
AC50 (Cytochrome P450 1A2): 1.12 µM (inconclusive) | AC50 (Cytochrome P450 2C9): 1.26 µM (inconclusive) | AC50 (Cytochrome P450 3A4): 17.8 µM (inconclusive)

N=C(N)SCc1nc(-c2ccc(Cl)cc2)no1
AC50 (Cytochrome P450 3A4): 5.01 µM (inconclusive) | AC50 (Cytochrome P450 2D6): 3.16 µM (inconclusive)
